Measurements from patent US20260272907A1, “Therapeutic Tyrosine Kinase Inhibitors for Multiple Sclerosis” (Principia Biopharma Inc., priority 2022, published 2026).

Test system: patients with relapsing multiple sclerosis
Experiment: Phase 2b dose-finding study: adverse events (TEAEs, SAEs, AESIs), safety population
Conditions: for Adverse event: Accidental overdose / Adverse event: Alanine aminotransferase increased / Adverse event: Alopecia / Adverse event: Back pain / Adverse event: Gastroenteritis / Adverse event: Headache / Adverse event: Muscle spasticity / Adverse event: Nasopharyngitis / Adverse event: Oropharyngeal pain / Adverse event: Peripheral edema / Adverse event: Respiratory tract infection / Adverse event: Upper respiratory tract infection: 12 weeks treatment
[1] = BTKi 5 mg (n = 33), Weeks 1 to 12
[2] = BTKi 15 mg (N = 16), Weeks 1 to 4
[3] = BTKi 15 mg (n = 32), Weeks 1 to 12
[4] = BTKi 30 mg (N = 16), Weeks 1 to 4
[5] = BTKi 30 mg (n = 33), Weeks 1 to 12
[6] = BTKi 60 mg (N = 16), Weeks 1 to 4
[7] = BTKi 60 mg (n = 32), Weeks 1 to 12
[8] = BTKi 5 (N = 32), BTK inhibitor treatment period, safety population
[9] = BTKi 15 (N = 32), BTK inhibitor treatment period, safety population
[10] = BTKi 30 (N = 33), BTK inhibitor treatment period, safety population
[11] = BTKi 60 (N = 33), BTK inhibitor treatment period, safety population

SMILES: C=CC(=O)N1CCC[C@@H](n2c(=O)n(-c3ccc(Oc4ccccc4)cc3)c3c(N)nccc32)C1 [the BTK inhibitor, (R)-1-(1-acryloylpiperidin-3-yl)-4-amino-3-(4-phenoxyphenyl)-1H-imidazo[4,5-c]pyridin-2(3H)-one]
- Any treatment-related AE [1]: 5 (15.2) n (%)
- Serious AE [1]: 0 n (%)
- AE leading to death [2]: 0
- AE leading to study discontinuation [2]: 0
- Any AE leading to study treatment discontinuation [2]: 0
- Any treatment-related AE [2]: 0
- Serious AE [2]: 0
- Adverse event: Accidental overdose (BTKi 15 mg (n = 32)): 0%
- Adverse event: Alanine aminotransferase increased (BTKi 15 mg (n = 32)): 0%
- Adverse event: Alopecia (BTKi 15 mg (n = 32)): 1 (3%)
- Adverse event: Back pain (BTKi 15 mg (n = 32)): 1 (3%)
- Adverse event: Gastroenteritis (BTKi 15 mg (n = 32)): 0%
- Adverse event: Headache (BTKi 15 mg (n = 32)): 3 (9%)
- Adverse event: Muscle spasticity (BTKi 15 mg (n = 32)): 0%
- Adverse event: Nasopharyngitis (BTKi 15 mg (n = 32)): 0%
- Adverse event: Oropharyngeal pain (BTKi 15 mg (n = 32)): 0%
- Adverse event: Peripheral edema (BTKi 15 mg (n = 32)): 0%
- Adverse event: Respiratory tract infection (BTKi 15 mg (n = 32)): 1 (3%)
- Adverse event: Upper respiratory tract infection (BTKi 15 mg (n = 32)): 2 (6%)
- AE leading to death [3]: 0 n (%)
- AE leading to study discontinuation [3]: 0 n (%)
- Any AE (4 weeks vs. placebo 12 weeks) [3]: 17 (53.1) n (%)
- Any AE leading to study treatment discontinuation [3]: 0 n (%)
- Any treatment-related AE [3]: 1 (3.1) n (%)
- Serious AE [3]: 0 n (%)
- AE leading to death [4]: 0
- AE leading to study discontinuation [4]: 0
- Any AE leading to study treatment discontinuation [4]: 0
- Any treatment-related AE [4]: 0
- Serious AE [4]: 0
- Adverse event: Accidental overdose (BTKi 30 mg (n = 33)): 0%
- Adverse event: Alanine aminotransferase increased (BTKi 30 mg (n = 33)): 1 (3%)
- Adverse event: Alopecia (BTKi 30 mg (n = 33)): 0%
- Adverse event: Back pain (BTKi 30 mg (n = 33)): 2 (6%)
- Adverse event: Gastroenteritis (BTKi 30 mg (n = 33)): 0%
- Adverse event: Headache (BTKi 30 mg (n = 33)): 1 (3%)
- Adverse event: Muscle spasticity (BTKi 30 mg (n = 33)): 1 (3%)
- Adverse event: Nasopharyngitis (BTKi 30 mg (n = 33)): 1 (3%)
- Adverse event: Oropharyngeal pain (BTKi 30 mg (n = 33)): 1 (3%)
- Adverse event: Peripheral edema (BTKi 30 mg (n = 33)): 0%
- Adverse event: Respiratory tract infection (BTKi 30 mg (n = 33)): 1 (3%)
- Adverse event: Upper respiratory tract infection (BTKi 30 mg (n = 33)): 1 (3%)
- AE leading to death [5]: 0 n (%)
- AE leading to study discontinuation [5]: 0 n (%)
- Any AE (4 weeks vs. placebo 12 weeks) [5]: 18 (54.5) n (%)
- Any AE leading to study treatment discontinuation [5]: 0 n (%)
- Any treatment-related AE [5]: 4 (12.1) n (%)
- Serious AE [5]: 0 n (%)
- AE leading to death [6]: 0
- AE leading to study discontinuation [6]: 0
- Any AE leading to study treatment discontinuation [6]: 0
- Serious AE [6]: 0
- Adverse event: Accidental overdose (BTKi 60 mg (n = 32)): 3 (9%)
- Adverse event: Alanine aminotransferase increased (BTKi 60 mg (n = 32)): 1 (3%)
- Adverse event: Alopecia (BTKi 60 mg (n = 32)): 1 (3%)
- Adverse event: Back pain (BTKi 60 mg (n = 32)): 0%
- Adverse event: Gastroenteritis (BTKi 60 mg (n = 32)): 2 (6%)
- Adverse event: Headache (BTKi 60 mg (n = 32)): 4 (13%)
- Adverse event: Muscle spasticity (BTKi 60 mg (n = 32)): 2 (6%)
- Adverse event: Nasopharyngitis (BTKi 60 mg (n = 32)): 3 (9%)
- Adverse event: Oropharyngeal pain (BTKi 60 mg (n = 32)): 1 (3%)
- Adverse event: Peripheral edema (BTKi 60 mg (n = 32)): 2 (6%)
- Adverse event: Respiratory tract infection (BTKi 60 mg (n = 32)): 1 (3%)
- Adverse event: Upper respiratory tract infection (BTKi 60 mg (n = 32)): 1 (3%)
- AE leading to death [7]: 0 n (%)
- AE leading to study discontinuation [7]: 0 n (%)
- Any AE (4 weeks vs. placebo 12 weeks) [7]: 16 (50.0) n (%)
- Any AE leading to study treatment discontinuation [7]: 0 n (%)
- Any treatment-related AE [7]: 7 (21.9) n (%)
- Serious AE [7]: 1 (3.1) n (%)
- Participants with any TEAE [8]: 16 (50.0) n (%)
- Participants with any TEAE leading to death [8]: 0 n (%)
- Participants with any TEAE leading to study treatment discontinuation [8]: 0 n (%)
- Participants with any severe TEAE [8]: 0 n (%)
- Participants with any treatment emergent SAE [8]: 0 n (%)
- Participants with any treatment-related TEAE [8]: 6 (18.8) n (%)
- Participants with study discontinuation due to any TEAE [8]: 0 n (%)
- Participants with treatment emergent SAE(s): Any class [8]: 0 n(%)
- Participants with treatment emergent SAE(s): Multiple sclerosis relapse [8]: 0 n(%)
- Participants with treatment emergent SAE(s): NERVOUS SYSTEM DISORDERS [8]: 0 n(%)
- Participants with any TEAE leading to death (BTKi 5 (N = 32), Weeks 1 to 4): 0 n (%)
- Participants with any TEAE leading to study treatment discontinuation (BTKi 5 (N = 32), Weeks 1 to 4): 0 n (%)
- Participants with any severe TEAE (BTKi 5 (N = 32), Weeks 1 to 4): 0 n (%)
- Participants with any treatment emergent SAE (BTKi 5 (N = 32), Weeks 1 to 4): 0 n (%)
- Participants with study discontinuation due to any TEAE (BTKi 5 (N = 32), Weeks 1 to 4): 0 n (%)
- Participants with any TEAE [9]: 18 (56.3) n (%)
- Participants with any TEAE leading to death [9]: 0 n (%)
- Participants with any TEAE leading to study treatment discontinuation [9]: 0 n (%)
- Participants with any severe TEAE [9]: 0 n (%)
- Participants with any treatment emergent SAE [9]: 0 n (%)
- Participants with any treatment-related TEAE [9]: 3 (9.4) n (%)
- Participants with study discontinuation due to any TEAE [9]: 0 n (%)
- Participants with treatment emergent SAE(s): Any class [9]: 0 n(%)
- Participants with treatment emergent SAE(s): Multiple sclerosis relapse [9]: 0 n(%)
- Participants with treatment emergent SAE(s): NERVOUS SYSTEM DISORDERS [9]: 0 n(%)
- Participants with any TEAE leading to death (BTKi 15 (N = 32), Weeks 1 to 4): 0 n (%)
- Participants with any TEAE leading to study treatment discontinuation (BTKi 15 (N = 32), Weeks 1 to 4): 0 n (%)
- Participants with any severe TEAE (BTKi 15 (N = 32), Weeks 1 to 4): 0 n (%)
- Participants with any treatment emergent SAE (BTKi 15 (N = 32), Weeks 1 to 4): 0 n (%)
- Participants with study discontinuation due to any TEAE (BTKi 15 (N = 32), Weeks 1 to 4): 0 n (%)
- Participants with any TEAE [10]: 17 (51.5) n (%)
- Participants with any TEAE leading to death [10]: 0 n (%)
- Participants with any TEAE leading to study treatment discontinuation [10]: 0 n (%)
- Participants with any severe TEAE [10]: 1 (3.0) n (%)
- Participants with any treatment emergent SAE [10]: 1 (3.0) n (%)
- Participants with any treatment-related TEAE [10]: 4 (12.1) n (%)
- Participants with study discontinuation due to any TEAE [10]: 0 n (%)
- Participants with treatment emergent SAE(s): Any class [10]: 1 (3.0) n(%)
- Participants with treatment emergent SAE(s): Multiple sclerosis relapse [10]: 1 (3.0) n(%)
- Participants with treatment emergent SAE(s): NERVOUS SYSTEM DISORDERS [10]: 1 (3.0) n(%)
- Participants with any TEAE leading to death (BTKi 30 (N = 33), Weeks 1 to 4): 0 n (%)
- Participants with any TEAE leading to study treatment discontinuation (BTKi 30 (N = 33), Weeks 1 to 4): 0 n (%)
- Participants with any severe TEAE (BTKi 30 (N = 33), Weeks 1 to 4): 0 n (%)
- Participants with any treatment emergent SAE (BTKi 30 (N = 33), Weeks 1 to 4): 0 n (%)
- Participants with study discontinuation due to any TEAE (BTKi 30 (N = 33), Weeks 1 to 4): 0 n (%)
- Participants with any TEAE leading to death [11]: 0 n (%)
- Participants with any TEAE leading to study treatment discontinuation [11]: 0 n (%)
- Participants with any severe TEAE [11]: 0 n (%)
- Participants with any treatment emergent SAE [11]: 0 n (%)
- Participants with any treatment-related TEAE [11]: 2 (6.1) n (%)
- Participants with study discontinuation due to any TEAE [11]: 0 n (%)
- Participants with treatment emergent SAE(s): Any class [11]: 0 n(%)
- Participants with treatment emergent SAE(s): Multiple sclerosis relapse [11]: 0 n(%)
- Participants with treatment emergent SAE(s): NERVOUS SYSTEM DISORDERS [11]: 0 n(%)
- Participants with any TEAE leading to death (BTKi 60 (N = 33), Weeks 1 to 4): 0 n (%)
- Participants with any TEAE leading to study treatment discontinuation (BTKi 60 (N = 33), Weeks 1 to 4): 0 n (%)
- Participants with any severe TEAE (BTKi 60 (N = 33), Weeks 1 to 4): 0 n (%)
- Participants with any treatment emergent SAE (BTKi 60 (N = 33), Weeks 1 to 4): 0 n (%)
- Participants with study discontinuation due to any TEAE (BTKi 60 (N = 33), Weeks 1 to 4): 0 n (%)
- AESIs (alanine aminotransferase increased >3×ULN) reported in the study (all dose groups): two
- TEAEs leading to permanent treatment discontinuation (all dose groups): no TEAEs leading to permanent treatment discontinuation
- Upper respiratory tract infection (TEAE) (in each treatment group (5, 15, 30, 60 mg), Weeks 1 to 4): 1 case
- Deaths (whole study, all dose groups): No deaths
